US8227510B2, “Combine use of pterostilbene and quercetin for the production of cancer treatment medicaments” (Universitat de Valencia, priority 2004, dated 2012)
Marks after values point to notes of the source that are not given here.

Legend:
[1] = system: B16M-F10 cells; test: Inhibition in vitro of the growth of B16M-F10 cells; type: cell-based
Experimental: B16M-F10 cells were cultured in Dulbecco's modified Eagle's medium (DMEM; Gibco Labs., Grand Island, N.Y., USA), pH 7.4, supplemented with 10% fetal serum (Gibco), HEPES 10 mM, NaHCO3 40 mM, 100 U/ml of penicillin and 100 μg/ml of streptomycin (20).
The B16M-F10 melanoma, highly aggressive, is a model that is widely used for investigating metastatic spread and tissue invasion (21), and for this reason was chosen for our studies. In the first group of experiments, we studied the effect in vitro of t-PTER+QUER on the growth of B16M-F10 cells. To reproduce the conditions in vivo after i.v. administration, we incubated B16M-F10 cells in the presence of t-PTER (40 μM) and/or QUER (20 μM) for a limited period (60 minutes) (this represents a value that approximates to the average of the concentrations of PTER and QUER measured in the plasma during the first hour after i.v. administration of 20 mg/kg of each polyphenol (FIG. 2). For comparison, we also used t-RESV (12 μM; selection of this concentration was based on a similar criterion, see the data cited in ref. 14). The polyphenols were added to the incubation medium every 24 hours and, as mentioned, they were only present for 60 minutes.
Also for comparison, we incubated B16M-F10 cells in the presence of t-PTER+QUER at concentrations representing an approximate average value of the total level of each polyphenol measured in the plasma in the first hour after oral administration (11 μM of PTER and 1 μM of QUER) (see Table 1). Both polyphenols, as free forms, were constantly present in the incubation medium.
FIG. 2. Inhibition in vitro of the growth of B16M-F10 cells by brief exposure to resveratrol (RESV), pterostilbene (PTER) and/or quercetin (QUER). All the points are mean values±SD corresponding to 5-6 independent experiments. *P<0.05, **P<0.01 compared with the control values.

[2] = system: B16M-F10 cells / HSE; test: In-vitro invasion of the monolayer of hepatic endothelial cells by B16M-F10 cells; type: cell-based, mice; conditions: t-RESV 12 μM, t-PTER 40 μM, QUER 20 μM; 5 days culture; none 157 ± 17
Experimental: The test of invasion of the endothelial cell monolayer by B16M-F10 cells was carried out in accordance with the method of Ohigashi et al. (23) with some modifications. The HSE cells were seeded on culture plates with grids coated with gelatin (1%). When the cells attained confluence, the culture medium was replaced with freshly prepared medium. After 2 hours of incubation, the cultures were washed with DMEM and then the B16M-F10 cells were seeded on the HSE cells, maintaining the culture for 5 days. The invasion capacity of the B16M-F10 cells was measured by counting the number of colonies per 1 cm^2 formed under the HSE monolayer using a phase-contrast microscope.
HSE cells, previously cultured for 24 hours [±polyphenol(s), added 12 hours from seeding and removed by washing 60 minutes later], were cocultured with B16M-F10 cells previously cultured for 72 hours [±polyphenol(s), as in FIG. 2]. Cytokines [100 units of TNF-/ml and 50 units of IFN-/ml, see (20)] or the vehicle (physiological saline) were added to the culture media 12 hours before starting the cocultures. The proportion of adhesion of the tumor cells to the HSE was ˜1:1 in the cultures treated with cytokines in the absence of polyphenols (this value was assigned an adhesion level of 100%). In the experiments of adhesion between B16M-F10 cells and endothelial cells, 20 minutes after adding the B16M-F10 to the HSE, the plates were washed in the manner described in the methodology. In the tests of endothelium-induced cytotoxicity on the B16M-F10 cells, the tumor damage (expressed as the percentage of tumor cells that lost viability during the incubation period of 4-6 hours, see the methodology) was determined after 6 hours of incubation. During the 6-hour incubation period, the percentage viability of the HSE cells was 99-100% in all cases. All of the tests were carried out in the absence or in the presence of t-RESV (12 μM), t-PTER (40 μM), and/or QUER (20 μM). […]

[3] = t-PTER 40 μM, QUER 20 μM, t-RESV 12 μM, added every 24 hours, present for 60 minutes

SMILES	effect on growth of B16M-F10 cells at concentrations found after oral administration ([1]; t-PTER 11 μM and/or QUER 1 μM, constantly present in the medium)	inhibition at 20 µM [1, 3]	Number of colonies penetrated per cm^2 [2]	inhibition of the growth of B16M-F10 [1, 3]	effect of t-RESV on the percentage inhibition of growth promoted by t-PTER+QUER ([1]; t-RESV 12 μM added to t-PTER 40 μM + QUER 20 μM)
O=c1c(O)c(-c2ccc(O)c(O)c2)oc2cc(O)cc(O)c12 [QUER, quercetin]	did not have a significant effect	19%	106 ± 15** per cm^2	–	–
COc1cc(/C=C/c2ccc(O)cc2)cc(OC)c1 [PTER, pterostilbene]	–	–	89 ± 9** per cm^2	40%	–
Oc1ccc(C=Cc2cc(O)cc(O)c2)cc1 [RESV, resveratrol, reference compound]	–	–	104 ± 12** per cm^2	did not have a significant effect	did not significantly affect
